Experimental data as given in ChEMBL document CHEMBL1201862, “PubChem BioAssay data set” (2004).
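How tested: cells in 96-well plates exposed to compound for 48 hours at five concentrations. GI50 marks 50% less growth.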 Active and inactive are the calls of the source. No stated cut-off is given here; in the data, active = GI50 up to about 1.1 µM and inactive = higher.

Assays:
Experiment in all cases: NCI anticancer screen, dose series, 48 h
DMS-273 = system: DMS-273
SN12C = system: SN12C
NCI-H522 = system: NCI-H522
UO-31 = system: UO-31
DMS-114 = system: DMS-114
RXF 393 = system: RXF 393
HCT-116 = system: HCT-116
OVCAR-8 = system: OVCAR-8
HOP-62 = system: HOP-62
MOLT-4 = system: MOLT-4
CCRF-CEM = system: CCRF-CEM
SF-539 = system: SF-539
K562 = system: K562
SK-MEL-28 = system: SK-MEL-28
COLO 205 = system: COLO 205
HT-29 = system: HT-29
RPMI-8226 = system: RPMI-8226
SF-295 = system: SF-295
IGROV-1 = system: IGROV-1

Measured: GI50

N#C/C(=C/c1ccsc1)C(=O)c1ccccc1
inactive: DMS-273 > 100 µM | SN12C > 100 µM | NCI-H522 > 100 µM | UO-31 > 100 µM | DMS-114 > 100 µM | RXF 393 > 100 µM | HCT-116 > 100 µM | OVCAR-8 > 100 µM | HOP-62 > 100 µM | MOLT-4 > 100 µM | CCRF-CEM > 100 µM | SF-539 > 100 µM | K562 > 100 µM | SK-MEL-28 > 100 µM | COLO 205 > 100 µM | HT-29 > 100 µM | RPMI-8226 > 100 µM | SF-295 > 100 µM

C[C@]12Cc3conc3C(O)=C1CC[C@@H]1C2CC[C@@]2(C)C1CC[C@]2(C)O (some centres not stated)
inactive: DMS-273 9.04 µM | SN12C 33 µM | IGROV-1 19 µM | UO-31 16 µM | DMS-114 16.4 µM | RXF 393 18.9 µM | HCT-116 16.3 µM | OVCAR-8 23.4 µM | HOP-62 22.9 µM | MOLT-4 15.2 µM | CCRF-CEM 8.97 µM | SF-539 21.8 µM | K562 3.97 µM | SK-MEL-28 19.9 µM | COLO 205 20.4 µM | HT-29 20.6 µM | RPMI-8226 2.87 µM | SF-295 19.1 µM

COC(=O)CCC(=O)CC(=O)C(=O)Nc1ccc(F)cc1
inactive: DMS-273 > 100 µM | SN12C > 100 µM | IGROV-1 > 100 µM | NCI-H522 > 100 µM | UO-31 > 100 µM | DMS-114 > 100 µM | RXF 393 54 µM | HCT-116 > 100 µM | OVCAR-8 > 100 µM | HOP-62 > 100 µM | MOLT-4 > 100 µM | CCRF-CEM > 100 µM | SF-539 > 100 µM | K562 > 100 µM | SK-MEL-28 > 100 µM | COLO 205 > 100 µM | HT-29 > 100 µM | RPMI-8226 > 100 µM

COC(=O)C1=Cc2cn(S(=O)(=O)c3ccc(C)cc3)c3cccc(c23)C(C=C(C)C)N1C(C)=O (configuration not stated)
inactive: DMS-273 6.01 µM | SN12C 14.1 µM | IGROV-1 48.8 µM | NCI-H522 5.83 µM | UO-31 26.1 µM | DMS-114 11.5 µM | RXF 393 13.8 µM | HCT-116 11.1 µM | OVCAR-8 84.9 µM | HOP-62 > 100 µM | MOLT-4 3.1 µM | CCRF-CEM 7.87 µM | SF-539 > 100 µM | K562 8 µM | SK-MEL-28 > 10 µM | COLO 205 4.71 µM | HT-29 27.9 µM | SF-295 6.11 µM

CC(C)(C)OC(=O)NCCc1cccc2c1oc1c(CCC(=O)O)cccc12
inactive: DMS-273 > 100 µM | SN12C > 100 µM | IGROV-1 > 100 µM | NCI-H522 > 100 µM | UO-31 > 100 µM | DMS-114 > 100 µM | RXF 393 > 100 µM | HCT-116 > 100 µM | OVCAR-8 > 100 µM | MOLT-4 > 100 µM | CCRF-CEM > 100 µM | SF-539 > 100 µM | K562 > 100 µM | SK-MEL-28 > 100 µM | COLO 205 > 100 µM | HT-29 > 100 µM | RPMI-8226 > 100 µM | SF-295 > 100 µM

Cc1[nH]c(O)nc1C(=O)c1ccc(-n2ccnc2)cc1
inactive: DMS-273 > 100 µM | SN12C > 100 µM | IGROV-1 > 100 µM | NCI-H522 > 100 µM | UO-31 > 100 µM | DMS-114 > 100 µM | RXF 393 > 100 µM | HCT-116 > 100 µM | OVCAR-8 > 100 µM | HOP-62 > 100 µM | MOLT-4 > 100 µM | SF-539 > 100 µM | K562 > 100 µM | SK-MEL-28 > 100 µM | HT-29 > 100 µM | RPMI-8226 > 100 µM | SF-295 > 100 µM
